PMC9933715 (Antimicrobial Agents and Chemotherapy, 2023)

Assays:
[1] = test system: ZIKV-R2A (strain FSS13025); assay: microbe, parasite or virus in culture; format: cell-based; conditions: Zika virus, Huh7.5, 48 h, read-out: ZIKV-R2A replication (fold DMSO) Mean
[2] = test system: DENV-R2A (Rluc-expressing DENV, serotype 2 strain 16681); assay: microbe, parasite or virus in culture; format: cell-based, Dengue virus; conditions: Dengue virus, Huh7.5, 48 h, read-out: DENV-R2A replication (fold DMSO) Mean, deconvolution screen, singletons, 50 µM, Huh7.5, 2 days postinfection
[3] = test system: Huh7.5 cells; assay: Cell viability, CellTiter-Glo luminescent assay; conditions: deconvolution screen, singletons, 50 µM, uninfected Huh7.5

Structure (SMILES)	activity at 50 µM [1] [%]	activity at 50 µM [2] [%]	Cell viability (fold DMSO) Mean [3] [fold DMSO]
CN(C)C(=O)c1ccccc1Br [PS-4942, CN(C)C(=O)c1ccccc1Br]	112	107	1.07
Nc1ccc(Cl)nn1 [PS-5236, Nc1ccc(Cl)nn1]	108	108	1.18
Nc1cccc(Cl)c1 [PS-5280, Nc1cccc(Cl)c1]	116	111	0.98
N[C@H]1CC[C@H](O)CC1 [PS-5466, N[C@@H]1CC[C@@H](O)CC1]	115	96	0.99
Cc1ncccc1C(=O)O [PS-5559, Cc1ncccc1C(=O)O]	104	102	0.92
O=C(O)Cc1ccc(O)cc1 [PS-5568, OC(=O)Cc1ccc(O)cc1]	103	97	0.98
COc1ncc(Cl)cc1C#N [PS-5618, COc1ncc(Cl)cc1C#N]	97	108	1.05
Clc1cccn2nnnc12 [PS-5645, Clc1cccn2nnnc12]	101	101	0.92
Nc1cnc(Cl)cn1 [PS-5654, Nc1cnc(Cl)cn1]	117	97	1.12
Cc1ccc(Br)c(N)c1 [PS-5668, Cc1ccc(Br)c(N)c1]	101	102	1.16
O=C(O)c1ccc(N2CCCCC2)nn1 [PS-5724, OC(=O)c1ccc(nn1)N2CCCCC2]	106	107	1.01
OCc1cccc(CO)n1 [PS-5751, OCc1cccc(CO)n1]	113	100	0.90
Nc1cccnc1Cl [PS-5762, Nc1cccnc1Cl]	109	106	1.10
N#Cc1cccc(O)c1 [PS-5804, Oc1cccc(c1)C#N]	115	102	1.16
CC1(C)CC(O)CC(C)(C)N1 [PS-5856, CC1(C)CC(O)CC(C)(C)N1]	110	97	1.06
OC[C@@H]1Cc2ccccc2CN1 [PS-6029, OC[C@@H]1Cc2ccccc2CN1]	114	99	0.97
Nc1cnccc1Cl [PS-6061, Nc1cnccc1Cl]	102	102	1.04
Brc1cnc(N2CCCC2)nc1 [PS-6092, Brc1cnc(nc1)N2CCCC2]	103	105	1.11
C[C@@H](O)c1cccc(C(F)(F)F)c1 [PS-6325, C[C@@H](O)c1cccc(c1)C(F)(F)F]	108	103	1.07
O=C(O)C(O)c1cc(F)cc(F)c1 (stereo not drawn) [PS-6482, OC(C(=O)O)c1cc(F)cc(F)c1]	110	101	1.08
CC(=O)Nc1ccc(OC(F)F)cc1 [PS-6506, CC(=O)Nc1ccc(OC(F)F)cc1]	110	105	1.10
O=C1CCNc2c(F)cccc21 [PS-6636, Fc1cccc2C(=O)CCNc12]	86	87	1.14
Fc1cc(F)cc(-c2ccno2)c1 [PS-6845, Fc1cc(F)cc(c1)c2oncc2]	111	100	1.15
COc1cc(F)c(C#N)c(F)c1 [PS-6866, COc1cc(F)c(C#N)c(F)c1]	115	97	1.01
OCC1(c2ccc(Cl)cc2)CC1 [RS-1014, OCC1(CC1)c2ccc(Cl)cc2]	93	84	1.07
COc1ccccc1N1CCNC(C)C1 (stereo not drawn) [SS-2433, COc1ccccc1N2CCNC(C)C2]	94	82	1.09
CCNC(=O)N1CCC(O)CC1 [SS-4002, CCNC(=O)N1CCC(O)CC1]	98	103	1.05
